Series [1] deals with MEFs KRAS WT p53 MUT. Nature of the series: Cell viability in MEFs, KRAS WT p53 MUT. Type of series: cell-based. As to conditions: Mus musculus. As to the method: KrasWT mouse embryonic fibroblasts (MEFs) were derived from conditional LSL-Trp53^R172H/+ embryos. LSL-Trp53^R172H/+, LSL-Kras^G12D/+ ([Hingorani et al., 2005]) strains were interbred to obtain LSL-Kras^G12D/+, LSL-Trp53^R172H/+ Kras^G12D embryos for MEF preparation. Briefly, MEFs were derived from E13.5 embryos after decapitation and evisceration. Finely minced tissue was passed through a 16-G needle two or three times before dissociated cells were cultured in DMEM with 10% FBS. Cre-mediated recombination to activate the Kras^G12D allele was induced via addition of 500nM 4-OH Tamoxifen to the culture media overnight.

The subject of series [2] is Panc 02.03. Kind of series: Cell viability (SRB), Panc 02.03. Type of series: cell-based. As to conditions: Homo sapiens, Panc 02.03, 72 h. Here is the method: SW48 Parental, SW48 G12D, Panc-1, HPAF-II, Panc 02.03 and Panc 05.04 cell lines were seeded overnight at 5000 cells per well in a 96 well plate in recommended media (ATCC). Compounds were added the following day and viability was measured at 72h using the sulforhodamine B (SRB) colorimetric assay as follows. Cells were fixed by replacing media with 1% v/v Trichloroacetic Acid (TCA) (Sigma-Aldrich) at 4°C and incubated for 1h also at 4°C. Wells were washed thoroughly with copious amounts of deionised water before staining with Sulforhodamine B (SRB) (Sigma-Aldrich) solution (0.057% w/v in 1% v/v Acetic Acid (VWR)) for 30 min. Stain was aspirated and wells washed with several changes of 1% v/v Acetic Acid until unbound stain was removed, before air-drying. Bound stain was solubilized with 100μl / well 10mM Tris (pH 8.0) (Trizma Base (121.1) Sigma-Aldrich) with agitation for 10 min. Fluorescence intensity was recorded at Ex540nm / Em590nm using a BMG Pherastar Plus plate reader ([Vichai and Kirtikara, 2006]).
Pancreatic organoids were extracted and cultured as detailed above ([Boj et al., 2015]). In brief, pancreatic organoids were seeded at 600 cells per well in a 96 well plate and allowed to grow for 7 days with media replenishment on the 3rd day. Full-grown organoids were then treated with compounds for 72h and viability determined using CellTitre Glo 3D assay (Promega). For viability assays with c-MET siRNA, cells were reverse transfected in a 6 cm dish using Dharmafect 1 (GE Dharmacon) per manufacturer’s instructions. On the following day, cells were trypsinised and plated onto 96 well plates or 6 well plates. The 96 well plates were treated with a dose range of compounds or DMSO, and viability was determined via SRB colorimetric assay. […]
Cells were reverse-transfected with 50nM (SW48 parental, SW48 KRAS G12D and Panc-1) or 25nM (HeLa Flp-In T-REx parental cells) siRNA using Dharmafect (GE Dharmacon) as manufacturer’s recommendations. […] Viability was assessed after 72 hrs, with the SRB colorimetric assay. Knockdown efficiencies were determined by Western blot or RT-qPCR. […]

The target of series [3] is hERG ion channel (Homo sapiens, UniProt Q12809). Nature of the series: hERG ion channel activity. (hERG is a cardiac potassium channel; its block is linked to QT prolongation.)

Where two headings read alike, the source gives them in different places.

Chain of hERG ion channel (Q12809 whole entry): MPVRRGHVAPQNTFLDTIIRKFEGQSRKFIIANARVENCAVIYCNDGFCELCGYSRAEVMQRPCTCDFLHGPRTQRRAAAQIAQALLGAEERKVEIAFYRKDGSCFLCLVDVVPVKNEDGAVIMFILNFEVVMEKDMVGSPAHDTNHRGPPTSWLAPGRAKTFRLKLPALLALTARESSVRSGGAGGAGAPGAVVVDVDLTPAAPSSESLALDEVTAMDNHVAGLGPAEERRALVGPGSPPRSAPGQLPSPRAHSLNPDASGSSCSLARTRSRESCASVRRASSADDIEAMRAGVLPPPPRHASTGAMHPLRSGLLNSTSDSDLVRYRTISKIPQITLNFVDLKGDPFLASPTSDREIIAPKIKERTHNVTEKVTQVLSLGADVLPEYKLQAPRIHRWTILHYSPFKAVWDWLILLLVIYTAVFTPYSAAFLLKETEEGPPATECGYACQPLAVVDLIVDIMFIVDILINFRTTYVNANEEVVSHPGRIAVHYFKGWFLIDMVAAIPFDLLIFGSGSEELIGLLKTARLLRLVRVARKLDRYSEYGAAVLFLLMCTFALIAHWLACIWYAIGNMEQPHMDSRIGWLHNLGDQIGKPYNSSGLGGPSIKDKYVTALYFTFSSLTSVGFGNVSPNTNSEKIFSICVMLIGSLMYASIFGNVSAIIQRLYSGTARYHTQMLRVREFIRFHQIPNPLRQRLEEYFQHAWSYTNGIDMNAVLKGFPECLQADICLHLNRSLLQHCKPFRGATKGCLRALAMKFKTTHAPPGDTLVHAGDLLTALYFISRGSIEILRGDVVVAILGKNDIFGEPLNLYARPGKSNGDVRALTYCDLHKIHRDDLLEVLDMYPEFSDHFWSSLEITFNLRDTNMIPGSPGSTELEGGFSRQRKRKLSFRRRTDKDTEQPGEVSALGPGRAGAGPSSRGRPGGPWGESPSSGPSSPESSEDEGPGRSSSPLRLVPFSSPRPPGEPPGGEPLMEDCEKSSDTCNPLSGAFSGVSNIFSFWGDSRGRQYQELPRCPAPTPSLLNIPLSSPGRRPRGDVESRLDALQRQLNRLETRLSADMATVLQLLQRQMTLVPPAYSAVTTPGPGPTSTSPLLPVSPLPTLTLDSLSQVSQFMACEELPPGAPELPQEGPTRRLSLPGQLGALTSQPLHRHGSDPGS

On to `O=C(O)CCc1ccc(-c2ccc(Br)cc2)n1-c1ccccc1C(F)(F)F` [Poloppin], for which the 50% growth inhibitory concentration (GI50) turned out to be 51.1 ± 1.05 µM in series [1] (MEFs KRAS WT p53 MUT) and 43.7 ± 1.09 µM in series [1] (MEFs KRAS WT p53 MUT+4OHT). Moreover, the EC50 is 47.1 ± 1.03 µM in series [2] (read-out: EC50, % survival, Panc 02.03, All Stars control siRNA, 72 h) and 8.7 ± 1.16 µM in series [2] (read-out: EC50, % survival, Panc 02.03, siMET, 72 h).

For `CN(C)CCNC(=O)c1ccc(-c2ccc(-c3ccc(Cl)cc3)n2-c2ccccc2C(F)(F)F)cc1` [Poloppin-II], the “activity against the hERG ion channel” value in series [3] is “inactive”.

The term GI50 denotes the concentration that inhibits growth by half. A word on the EC50: it is the concentration that produces a half-maximal response.
